Test results published in US10710978B2, “STK4 inhibitors for treatment of hematologic malignancies” (Dana-Farber Cancer Institute, Inc., priority 2015, dated 2020).
Where two headings read alike, the source gives them in different places.

Assays:
Test in all cases: KiNativ assay
Format in all cases: binding
[1] = target: NEK7 (Homo sapiens (Human), UniProt Q8TDX7); conditions: H929 live cell
Method: (§1) Biochemical IC50s of the compounds of the present disclosure against various kinases were measured in a KiNativ assay. Compounds were screened in duplicate at 10 μM in H929 live cell. IC50 was measured via Mass spectroscopy (MS).

[2] = target: LYN (Homo sapiens (Human), UniProt P07948); conditions: H929 live cell
Chain of LYN (P07948 whole entry): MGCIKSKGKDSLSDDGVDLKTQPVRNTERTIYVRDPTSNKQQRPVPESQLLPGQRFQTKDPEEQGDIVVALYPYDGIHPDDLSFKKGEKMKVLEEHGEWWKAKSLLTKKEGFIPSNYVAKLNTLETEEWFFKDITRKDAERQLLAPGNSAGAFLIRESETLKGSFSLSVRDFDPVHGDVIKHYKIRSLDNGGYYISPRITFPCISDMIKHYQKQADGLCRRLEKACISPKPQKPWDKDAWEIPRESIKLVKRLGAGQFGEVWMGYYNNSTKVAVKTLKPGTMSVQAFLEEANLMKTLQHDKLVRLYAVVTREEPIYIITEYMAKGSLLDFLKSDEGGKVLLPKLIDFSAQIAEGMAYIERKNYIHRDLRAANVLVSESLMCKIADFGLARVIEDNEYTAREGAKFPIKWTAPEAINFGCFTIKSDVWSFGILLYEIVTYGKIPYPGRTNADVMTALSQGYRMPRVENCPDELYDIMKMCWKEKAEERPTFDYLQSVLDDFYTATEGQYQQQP
Method: as §1

[3] = target: MSK1 domain1 (Homo sapiens (Human), UniProt O75582); conditions: H929 live cell
Method: as §1

[4] = target: PLK1 (Homo sapiens (Human), UniProt P53350); conditions: H929 live cell
Method: as §1

[5] = target: PAN3 (Homo sapiens (Human), UniProt Q58A45); conditions: H929 live cell
Chain of PAN3 (Q58A45 whole entry): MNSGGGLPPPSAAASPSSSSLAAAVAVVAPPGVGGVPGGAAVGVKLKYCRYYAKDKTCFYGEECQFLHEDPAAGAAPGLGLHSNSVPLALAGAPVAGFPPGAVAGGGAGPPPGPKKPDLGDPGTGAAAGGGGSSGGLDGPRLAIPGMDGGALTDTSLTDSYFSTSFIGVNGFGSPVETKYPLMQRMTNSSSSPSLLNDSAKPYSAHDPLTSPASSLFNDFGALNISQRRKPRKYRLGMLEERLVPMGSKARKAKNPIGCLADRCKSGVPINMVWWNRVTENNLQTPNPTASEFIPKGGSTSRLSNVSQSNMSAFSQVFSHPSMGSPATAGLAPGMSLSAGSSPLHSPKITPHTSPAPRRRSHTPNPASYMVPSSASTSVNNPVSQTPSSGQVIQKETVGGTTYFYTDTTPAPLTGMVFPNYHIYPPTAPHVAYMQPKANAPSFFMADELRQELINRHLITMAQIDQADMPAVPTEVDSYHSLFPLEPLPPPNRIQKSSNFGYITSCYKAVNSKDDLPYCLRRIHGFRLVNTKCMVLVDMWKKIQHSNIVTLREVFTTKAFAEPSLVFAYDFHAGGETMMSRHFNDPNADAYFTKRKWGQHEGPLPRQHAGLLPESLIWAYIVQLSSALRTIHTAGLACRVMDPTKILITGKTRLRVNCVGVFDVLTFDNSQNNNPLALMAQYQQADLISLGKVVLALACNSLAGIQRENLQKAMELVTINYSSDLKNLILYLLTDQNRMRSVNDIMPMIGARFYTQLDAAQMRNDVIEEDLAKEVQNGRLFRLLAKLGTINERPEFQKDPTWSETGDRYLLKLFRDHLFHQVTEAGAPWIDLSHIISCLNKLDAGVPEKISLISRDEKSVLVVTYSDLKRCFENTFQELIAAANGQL
Method: as §1

[6] = tested on: PITSLRE; conditions: H929 live cell; for % inhibition: 10 μM, range class
Method: as §1

[7] = tested on: AMPKa1, AMPKa2; conditions: H929 live cell; for % inhibition: 10 μM, range class
Method: as §1

[8] = target: CHK1 (Homo sapiens (Human), UniProt O14757); conditions: H929 live cell
Method: as §1

[9] = target: PRPK (Homo sapiens (Human), UniProt Q96S44); conditions: H929 live cell
Chain of PRPK (Q96S44 whole entry): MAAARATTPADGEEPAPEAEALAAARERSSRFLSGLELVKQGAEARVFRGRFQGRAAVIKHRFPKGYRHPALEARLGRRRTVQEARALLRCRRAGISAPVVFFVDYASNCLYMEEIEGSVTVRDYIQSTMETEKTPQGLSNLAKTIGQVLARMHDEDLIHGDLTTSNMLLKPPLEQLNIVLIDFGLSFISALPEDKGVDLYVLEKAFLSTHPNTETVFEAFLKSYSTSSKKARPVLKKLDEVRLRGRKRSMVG
Method: as §1

[10] = target: GCK (Homo sapiens (Human), UniProt Q12851); conditions: H929 live cell
Method: as §1

[11] = tested on: CDK11, CDK8; conditions: H929 live cell; for % inhibition: 10 μM, range class
Method: as §1

[12] = target: MAP3K1 (Homo sapiens (Human), UniProt Q13233); conditions: H929 live cell
Method: as §1

[13] = target: NuaK2 (Homo sapiens (Human), UniProt Q9H093); conditions: H929 live cell
Chain of NuaK2 (Q9H093 whole entry): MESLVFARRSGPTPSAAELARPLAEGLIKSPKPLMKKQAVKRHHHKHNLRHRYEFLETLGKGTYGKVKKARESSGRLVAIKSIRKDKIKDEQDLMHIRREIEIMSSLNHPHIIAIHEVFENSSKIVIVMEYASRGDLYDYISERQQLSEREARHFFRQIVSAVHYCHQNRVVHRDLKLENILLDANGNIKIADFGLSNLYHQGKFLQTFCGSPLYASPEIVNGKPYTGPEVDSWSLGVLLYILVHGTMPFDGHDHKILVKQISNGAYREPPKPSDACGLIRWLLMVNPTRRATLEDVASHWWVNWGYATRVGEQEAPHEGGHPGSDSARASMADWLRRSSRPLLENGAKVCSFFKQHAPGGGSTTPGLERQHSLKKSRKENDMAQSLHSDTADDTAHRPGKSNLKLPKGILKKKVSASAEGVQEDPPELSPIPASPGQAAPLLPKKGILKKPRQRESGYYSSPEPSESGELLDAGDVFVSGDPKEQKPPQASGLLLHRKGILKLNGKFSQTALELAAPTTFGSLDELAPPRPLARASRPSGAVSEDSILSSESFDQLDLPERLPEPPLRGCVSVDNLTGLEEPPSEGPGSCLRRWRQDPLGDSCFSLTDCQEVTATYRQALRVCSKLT
Method: as §1

[14] = target: AurB (Homo sapiens (Human), UniProt Q96GD4); conditions: H929 live cell
Method: as §1

[15] = tested on: MARK2, MARK3; conditions: H929 live cell; for % inhibition: 10 μM, range class
Method: as §1

[16] = target: ATR (Homo sapiens (Human), UniProt Q13535); conditions: H929 live cell
Method: as §1

[17] = target: NEK9 (Homo sapiens (Human), UniProt Q8TD19); conditions: H929 live cell
Method: as §1

[18] = target: ZAK (Homo sapiens (Human), UniProt Q9NYL2); conditions: H929 live cell
Method: as §1

[19] = target: FER (Homo sapiens (Human), UniProt P16591); conditions: H929 live cell
Method: as §1

[20] = target: MAP2K4 (Homo sapiens (Human), UniProt P45985); conditions: H929 live cell
Method: as §1

[21] = target: CSK (Homo sapiens (Human), UniProt P41240); conditions: H929 live cell
Method: as §1

[22] = target: p70S6Kb (Homo sapiens (Human), UniProt Q9UBS0); conditions: H929 live cell
Chain of p70S6Kb (Q9UBS0 whole entry): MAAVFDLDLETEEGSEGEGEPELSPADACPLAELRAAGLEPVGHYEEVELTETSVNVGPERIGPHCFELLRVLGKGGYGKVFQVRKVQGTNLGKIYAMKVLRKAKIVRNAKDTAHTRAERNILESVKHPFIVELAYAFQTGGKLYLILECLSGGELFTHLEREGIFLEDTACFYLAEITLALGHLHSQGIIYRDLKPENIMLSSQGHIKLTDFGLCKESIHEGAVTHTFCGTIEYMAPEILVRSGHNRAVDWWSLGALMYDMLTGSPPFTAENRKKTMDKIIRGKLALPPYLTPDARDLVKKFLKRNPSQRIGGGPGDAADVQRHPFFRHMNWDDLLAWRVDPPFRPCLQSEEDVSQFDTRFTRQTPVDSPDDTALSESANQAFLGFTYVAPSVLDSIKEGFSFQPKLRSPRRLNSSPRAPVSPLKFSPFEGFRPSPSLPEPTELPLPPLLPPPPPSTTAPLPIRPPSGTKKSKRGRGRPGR
Method: as §1

[23] = target: BARK1 (Homo sapiens (Human), UniProt P25098); conditions: H929 live cell
Method: as §1

[24] = target: PIP4K2C (Homo sapiens (Human), UniProt Q8TBX8); conditions: H929 live cell
Method: as §1

[25] = target: LATS1 (Homo sapiens (Human), UniProt O95835); conditions: H929 live cell
Method: as §1

[26] = target: MAP3K4 (Homo sapiens (Human), UniProt Q9Y6R4); conditions: H929 live cell
Chain of MAP3K4 (Q9Y6R4 whole entry): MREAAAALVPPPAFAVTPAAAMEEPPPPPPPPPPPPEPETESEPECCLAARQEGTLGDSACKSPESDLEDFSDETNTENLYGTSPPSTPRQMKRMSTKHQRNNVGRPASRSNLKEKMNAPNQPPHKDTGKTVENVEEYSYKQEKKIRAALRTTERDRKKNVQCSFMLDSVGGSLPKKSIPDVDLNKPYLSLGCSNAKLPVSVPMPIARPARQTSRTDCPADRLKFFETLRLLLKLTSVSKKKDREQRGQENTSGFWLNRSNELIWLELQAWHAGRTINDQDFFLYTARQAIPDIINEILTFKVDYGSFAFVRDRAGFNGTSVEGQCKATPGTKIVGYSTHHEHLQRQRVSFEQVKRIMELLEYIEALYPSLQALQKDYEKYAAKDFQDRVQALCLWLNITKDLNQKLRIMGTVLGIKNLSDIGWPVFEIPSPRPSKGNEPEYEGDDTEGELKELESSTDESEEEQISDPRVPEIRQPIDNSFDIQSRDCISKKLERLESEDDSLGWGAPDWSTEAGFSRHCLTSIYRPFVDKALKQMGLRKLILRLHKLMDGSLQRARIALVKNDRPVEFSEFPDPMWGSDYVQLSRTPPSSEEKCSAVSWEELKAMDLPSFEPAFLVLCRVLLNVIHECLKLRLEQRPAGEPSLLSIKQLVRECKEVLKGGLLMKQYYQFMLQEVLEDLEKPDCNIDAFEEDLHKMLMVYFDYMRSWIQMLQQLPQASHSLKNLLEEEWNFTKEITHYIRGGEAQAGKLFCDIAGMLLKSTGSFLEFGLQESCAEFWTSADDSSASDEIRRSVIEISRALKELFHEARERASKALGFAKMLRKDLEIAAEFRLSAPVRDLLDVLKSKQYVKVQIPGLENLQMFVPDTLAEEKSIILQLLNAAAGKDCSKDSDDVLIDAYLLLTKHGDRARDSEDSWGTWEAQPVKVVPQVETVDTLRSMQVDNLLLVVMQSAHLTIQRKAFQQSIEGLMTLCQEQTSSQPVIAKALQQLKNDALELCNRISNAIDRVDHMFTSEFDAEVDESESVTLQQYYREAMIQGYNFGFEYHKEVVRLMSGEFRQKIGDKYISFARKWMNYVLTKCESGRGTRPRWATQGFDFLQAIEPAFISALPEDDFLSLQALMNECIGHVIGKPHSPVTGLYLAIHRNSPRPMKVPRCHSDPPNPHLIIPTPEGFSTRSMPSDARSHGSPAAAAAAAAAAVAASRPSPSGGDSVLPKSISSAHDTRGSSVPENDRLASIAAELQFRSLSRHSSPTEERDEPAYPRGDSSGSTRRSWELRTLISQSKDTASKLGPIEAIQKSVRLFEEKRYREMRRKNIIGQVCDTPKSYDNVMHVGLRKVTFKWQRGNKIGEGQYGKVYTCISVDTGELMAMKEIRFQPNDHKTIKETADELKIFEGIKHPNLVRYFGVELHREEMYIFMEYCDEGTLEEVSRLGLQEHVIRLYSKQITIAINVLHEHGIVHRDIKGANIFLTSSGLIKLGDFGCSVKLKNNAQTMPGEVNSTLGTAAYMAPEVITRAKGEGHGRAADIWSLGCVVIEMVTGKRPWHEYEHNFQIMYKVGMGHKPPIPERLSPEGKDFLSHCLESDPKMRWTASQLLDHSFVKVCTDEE
Method: as §1

[27] = target: STLK6 (Homo sapiens (Human), UniProt Q9C0K7); conditions: H929 live cell
Method: as §1

[28] = tested on: MAP2K1, MAP2K2; conditions: 10 μM, H929 live cell; range class
Method: as §1

[29] = target: NDR2 (Homo sapiens (Human), UniProt Q9Y2H1); conditions: H929 live cell
Chain of NDR2 (Q9Y2H1 whole entry): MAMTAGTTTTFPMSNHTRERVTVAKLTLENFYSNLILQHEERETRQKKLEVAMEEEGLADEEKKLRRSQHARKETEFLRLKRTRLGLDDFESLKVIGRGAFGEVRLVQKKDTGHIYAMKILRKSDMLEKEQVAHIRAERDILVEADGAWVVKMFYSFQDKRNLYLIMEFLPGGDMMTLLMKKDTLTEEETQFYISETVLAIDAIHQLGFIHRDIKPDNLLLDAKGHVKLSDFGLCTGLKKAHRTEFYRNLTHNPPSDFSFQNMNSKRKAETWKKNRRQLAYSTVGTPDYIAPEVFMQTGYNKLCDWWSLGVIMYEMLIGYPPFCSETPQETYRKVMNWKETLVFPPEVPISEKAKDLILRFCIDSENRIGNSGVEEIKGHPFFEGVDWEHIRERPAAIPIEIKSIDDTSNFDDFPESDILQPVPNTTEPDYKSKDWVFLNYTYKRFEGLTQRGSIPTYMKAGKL
Method: as §1

[30] = target: LOK (Homo sapiens (Human), UniProt O94804); conditions: H929 live cell
Method: as §1

[31] = target: OSR1 (Homo sapiens (Human), UniProt O95747); conditions: H929 live cell
Method: as §1

[32] = target: TBK1 (Homo sapiens (Human), UniProt Q9UHD2); conditions: H929 live cell
Method: as §1

[33] = target: AurA (Homo sapiens (Human), UniProt O14965); conditions: H929 live cell
Method: as §1

[34] = target: PIK3CB (Homo sapiens (Human), UniProt P42338); conditions: H929 live cell
Method: as §1

[35] = range class, read-out: % inhibition

COc1cc(NS(=O)(=O)C2CC2)ccc1-c1cnc(N)c(-c2ccc3c(c2)CCNC3=O)c1 [Compound I-50, N-(4-(6-amino-5-(1-oxo-1,2,3,4-tetrahydroisoquinolin-6-yl)pyridin-3-yl)-3-methoxyphenyl) cyclopropanesulfonamide]
inhibition at 10 µM [1, 35]: 0%
inhibition at 10 µM ([1]; read-out: inhibition (10 μM)): -18.9%
inhibition at 10 µM [2, 35]: 0%
inhibition at 10 µM ([2]; read-out: inhibition (10 μM)): 9.7%
inhibition at 10 µM [3, 35]: 0%
inhibition at 10 µM ([3]; read-out: inhibition (10 μM)): 0.1%
inhibition at 10 µM [4, 35]: 0%
inhibition at 10 µM ([4]; read-out: inhibition (10 μM)): -11.1%
inhibition at 10 µM [5, 35]: 0%
inhibition at 10 µM ([5]; read-out: inhibition (10 μM)): 14.3%
% inhibition [6]: 0.0%
inhibition (10 μM) [6]: −27.6%
% inhibition [7]: 0.0%
inhibition (10 μM) [7]: −8.2%
inhibition at 10 µM [8, 35]: 0%
inhibition at 10 µM ([8]; read-out: inhibition (10 μM)): -9.6%
inhibition at 10 µM [9, 35]: 0%
inhibition at 10 µM ([9]; read-out: inhibition (10 μM)): -23.6%
inhibition at 10 µM [10, 35]: > 90%
inhibition at 10 µM ([10]; read-out: inhibition (10 μM)): 95.2%
% inhibition [11]: 35-40%
inhibition (10 μM) [11]: 38.1%
inhibition at 10 µM [12, 35]: 75 to 90%
inhibition at 10 µM ([12]; read-out: inhibition (10 μM)): 86.7%
inhibition at 10 µM [13, 35]: 35 to 40%
inhibition at 10 µM ([13]; read-out: inhibition (10 μM)): 40.8%
inhibition at 10 µM [14, 35]: 0%
inhibition at 10 µM ([14]; read-out: inhibition (10 μM)): 7.7%
% inhibition [15]: 0.0%
inhibition (10 μM) [15]: 0.4%
inhibition at 10 µM [16, 35]: 0%
inhibition at 10 µM ([16]; read-out: inhibition (10 μM)): 17.1%
inhibition at 10 µM [17, 35]: 0%
inhibition at 10 µM ([17]; read-out: inhibition (10 μM)): 5.9%
inhibition at 10 µM [18, 35]: 0%
inhibition at 10 µM ([18]; read-out: inhibition (10 μM)): 6.6%
inhibition at 10 µM [19, 35]: 0%
inhibition at 10 µM ([19]; read-out: inhibition (10 μM)): 16.3%
inhibition at 10 µM [20, 35]: 35 to 40%
inhibition at 10 µM ([20]; read-out: inhibition (10 μM)): 37.5%
inhibition at 10 µM [21, 35]: 0%
inhibition at 10 µM ([21]; read-out: inhibition (10 μM)): -4.3%
inhibition at 10 µM [22, 35]: 0%
inhibition at 10 µM ([22]; read-out: inhibition (10 μM)): 14%
inhibition at 10 µM [23, 35]: 0%
inhibition at 10 µM ([23]; read-out: inhibition (10 μM)): -19.4%
inhibition at 10 µM [24, 35]: > 90%
inhibition at 10 µM ([24]; read-out: inhibition (10 μM)): 90.6%
inhibition at 10 µM [25, 35]: 0%
inhibition at 10 µM ([25]; read-out: inhibition (10 μM)): 2.9%
inhibition at 10 µM [26, 35]: 0%
inhibition at 10 µM ([26]; read-out: inhibition (10 μM)): 9.5%
inhibition at 10 µM [27, 35]: 0%
inhibition at 10 µM ([27]; read-out: inhibition (10 μM)): -15%
% inhibition [28]: 0.0%
inhibition at 10 µM [29, 35]: 0%
inhibition at 10 µM ([29]; read-out: inhibition (10 μM)): 4.5%
inhibition at 10 µM [30, 35]: > 90%
inhibition at 10 µM ([30]; read-out: inhibition (10 μM)): 91.6%
inhibition at 10 µM [31, 35]: 0%
inhibition at 10 µM ([31]; read-out: inhibition (10 μM)): 16.6%
inhibition at 10 µM [32, 35]: 0%
inhibition at 10 µM ([32]; read-out: inhibition (10 μM)): 31.4%
inhibition (10 μM) [33]: 11.9%
inhibition at 10 µM [33, 35]: 0%
inhibition at 10 µM ([33]; read-out: inhibition (10 μM)): 18%
inhibition at 10 µM [34, 35]: 0%
inhibition at 10 µM ([34]; read-out: inhibition (10 μM)): 27.7%

Nc1ncc(-c2ccc(NS(=O)(=O)C3CC3)cc2F)cc1-c1ccc2c(c1)CCNC2=O [Compound I-51, N-(4-(6-amino-5-(1-oxo-1,2,3,4-tetrahydroisoquinolin-6-yl)pyridin-3-yl)-3-fluorophenyl) cyclopropanesulfonamide]
inhibition at 10 µM [1, 35]: 0%
inhibition at 10 µM ([1]; read-out: inhibition (10 μM)): -50.3%
inhibition at 10 µM [2, 35]: 0%
inhibition at 10 µM ([2]; read-out: inhibition (10 μM)): -21.9%
inhibition at 10 µM [3, 35]: 0%
inhibition at 10 µM ([3]; read-out: inhibition (10 μM)): 11.4%
inhibition at 10 µM [4, 35]: 0%
inhibition at 10 µM ([4]; read-out: inhibition (10 μM)): -20.6%
inhibition at 10 µM [5, 35]: 0%
inhibition at 10 µM ([5]; read-out: inhibition (10 μM)): -39.1%
% inhibition [6]: 0.0%
inhibition (10 μM) [6]: −20.2%
% inhibition [7]: 0.0%
inhibition (10 μM) [7]: −20.5%
inhibition at 10 µM [8, 35]: 0%
inhibition at 10 µM ([8]; read-out: inhibition (10 μM)): -20.1%
inhibition at 10 µM [9, 35]: 0%
inhibition at 10 µM ([9]; read-out: inhibition (10 μM)): -47.4%
inhibition at 10 µM [10, 35]: > 90%
inhibition at 10 µM ([10]; read-out: inhibition (10 μM)): 93.9%
% inhibition [11]: 0.0%
inhibition (10 μM) [11]: 31.8%
inhibition at 10 µM [12, 35]: > 90%
inhibition at 10 µM ([12]; read-out: inhibition (10 μM)): 95.8%
inhibition at 10 µM [13, 35]: 35 to 40%
inhibition at 10 µM ([13]; read-out: inhibition (10 μM)): 45.1%
inhibition at 10 µM [14, 35]: 0%
inhibition at 10 µM ([14]; read-out: inhibition (10 μM)): 31.8%
% inhibition [15]: 0.0%
inhibition (10 μM) [15]: 14.9%
inhibition at 10 µM [16, 35]: 0%
inhibition at 10 µM ([16]; read-out: inhibition (10 μM)): 15%
inhibition at 10 µM [17, 35]: 0%
inhibition at 10 µM ([17]; read-out: inhibition (10 μM)): -20.8%
inhibition at 10 µM [18, 35]: 50 to 75%
inhibition at 10 µM ([18]; read-out: inhibition (10 μM)): 58.3%
inhibition at 10 µM [19, 35]: 0%
inhibition at 10 µM ([19]; read-out: inhibition (10 μM)): 13.4%
inhibition at 10 µM [20, 35]: 35 to 40%
inhibition at 10 µM ([20]; read-out: inhibition (10 μM)): 44.2%
inhibition at 10 µM [21, 35]: 0%
inhibition at 10 µM ([21]; read-out: inhibition (10 μM)): 6.9%
inhibition at 10 µM [22, 35]: 0%
inhibition at 10 µM ([22]; read-out: inhibition (10 μM)): 5.5%
inhibition at 10 µM [23, 35]: 0%
inhibition at 10 µM ([23]; read-out: inhibition (10 μM)): -5.1%
inhibition at 10 µM [24, 35]: 75 to 90%
inhibition at 10 µM ([24]; read-out: inhibition (10 μM)): 85.4%
inhibition at 10 µM [25, 35]: 0%
inhibition at 10 µM ([25]; read-out: inhibition (10 μM)): 3.9%
inhibition at 10 µM [26, 35]: 0%
inhibition at 10 µM ([26]; read-out: inhibition (10 μM)): 24.2%
inhibition at 10 µM [27, 35]: 0%
inhibition at 10 µM ([27]; read-out: inhibition (10 μM)): -15%
% inhibition [28]: 0.0%
inhibition at 10 µM [29, 35]: 0%
inhibition at 10 µM ([29]; read-out: inhibition (10 μM)): 8.4%
inhibition at 10 µM [30, 35]: > 90%
inhibition at 10 µM ([30]; read-out: inhibition (10 μM)): 96.9%
inhibition at 10 µM [31, 35]: 0%
inhibition at 10 µM ([31]; read-out: inhibition (10 μM)): 8.8%
inhibition at 10 µM [32, 35]: 35 to 40%
inhibition at 10 µM ([32]; read-out: inhibition (10 μM)): 35.8%
inhibition (10 μM) [33]: 43.2%
inhibition at 10 µM [33, 35]: 35 to 40%
inhibition at 10 µM ([33]; read-out: inhibition (10 μM)): 46.7%
inhibition at 10 µM [34, 35]: 0%
inhibition at 10 µM ([34]; read-out: inhibition (10 μM)): 7.2%
